In ChEMBL document CHEMBL3885861, “Open TG-GATES”:

Species: Rattus norvegicus
Assay: Open TG-GATES - Regimen: Single
Assay type: toxicity, organism-based, Sprague-Dawley
Parameters: regimen Single, gender Male, age 6 weeks
Settings: in vivo, po, route gavage; for APTT / Bas / Eos / Fbg / Hb / Ht / Lym / MCH / MCHC / MCV / Mono / Neu / Plat / RBC / Ret / WBC: tissue Blood; for KIDNEY_L / KIDNEY_R / KIDNEY_TOTAL: tissue Kidney; for LIVER: tissue Liver; for ALP / ALT / AST / CRE / DBIL / GLC / IP / K / LDH / Na / PL / RALB / TBIL / TC / TG / TP / gamma-GTP: tissue Plasma
[1] = 100 mg/kg, 24 h, dose level Low
[2] = 300 mg/kg, 3 h, dose level Middle
[3] = 300 mg/kg, 6 h, dose level Middle
[4] = 300 mg/kg, 9 h, dose level Middle
[5] = 300 mg/kg, 24 h, dose level Middle

CN(C)CCC=C1c2ccccc2COc2ccccc21 [DOXEPIN]
TERMINAL_BW (100 mg/kg, 9 h, dose level Low): 193.4 g | APTT (100 mg/kg, 9 h, dose level Low): 24.3 s | Bas (100 mg/kg, 9 h, dose level Low): 0% | Eos (100 mg/kg, 9 h, dose level Low): 0.8% | Fbg (100 mg/kg, 9 h, dose level Low): 284.4 mg/dL | Hb (100 mg/kg, 9 h, dose level Low): 13.5 g/dL | Ht (100 mg/kg, 9 h, dose level Low): 40.9% | Lym (100 mg/kg, 9 h, dose level Low): 80.4% | MCH (100 mg/kg, 9 h, dose level Low): 21.9 pg | MCHC (100 mg/kg, 9 h, dose level Low): 32.9% | MCV (100 mg/kg, 9 h, dose level Low): 66.5 fL | Mono (100 mg/kg, 9 h, dose level Low): 2.4% | Neu (100 mg/kg, 9 h, dose level Low): 16% | Plat (100 mg/kg, 9 h, dose level Low): 117.4 x10_4/uL | RBC (100 mg/kg, 9 h, dose level Low): 614.6 x10_4/ul | Ret (100 mg/kg, 9 h, dose level Low): 8.5% | WBC (100 mg/kg, 9 h, dose level Low): 81.6 x10_2/uL | KIDNEY_L (100 mg/kg, 9 h, dose level Low): 0.9 g | KIDNEY_R (100 mg/kg, 9 h, dose level Low): 0.9 g | KIDNEY_TOTAL (100 mg/kg, 9 h, dose level Low): 1.8 g | LIVER (100 mg/kg, 9 h, dose level Low): 7.7 g | ALP (100 mg/kg, 9 h, dose level Low): 1637.2 IU/L | ALT (100 mg/kg, 9 h, dose level Low): 33.8 IU/L | AST (100 mg/kg, 9 h, dose level Low): 69.4 IU/L | CRE (100 mg/kg, 9 h, dose level Low): 0.2 mg/dL | DBIL (100 mg/kg, 9 h, dose level Low): 0.002 mg/dL | GLC (100 mg/kg, 9 h, dose level Low): 167 mg/dL | IP (100 mg/kg, 9 h, dose level Low): 10.4 mg/dL | K (100 mg/kg, 9 h, dose level Low): 4 meq/L | LDH (100 mg/kg, 9 h, dose level Low): 99.6 IU/L | Na (100 mg/kg, 9 h, dose level Low): 144.8 meq/L | PL (100 mg/kg, 9 h, dose level Low): 135 mg/dL | RALB (100 mg/kg, 9 h, dose level Low): 2.5 g/dL | TBIL (100 mg/kg, 9 h, dose level Low): 0.062 mg/dL | TC (100 mg/kg, 9 h, dose level Low): 72.6 mg/dL | TG (100 mg/kg, 9 h, dose level Low): 26.6 mg/dL | TP (100 mg/kg, 9 h, dose level Low): 5.3 g/dL | gamma-GTP (100 mg/kg, 9 h, dose level Low): 1 IU/L | TERMINAL_BW [1]: 208.9 g | APTT [1]: 17.3 s | Bas [1]: 0% | Eos [1]: 0.8% | Fbg [1]: 264.6 mg/dL | Hb [1]: 14 g/dL | Ht [1]: 41.3% | Lym [1]: 78.2% | MCH [1]: 21.9 pg | MCHC [1]: 34% | MCV [1]: 64.4 fL | Mono [1]: 2.6% | Neu [1]: 17.4% | Plat [1]: 125.2 x10_4/uL | RBC [1]: 641.6 x10_4/ul | Ret [1]: 7.3% | WBC [1]: 97.7 x10_2/uL | KIDNEY_L [1]: 0.9 g | KIDNEY_R [1]: 0.9 g | KIDNEY_TOTAL [1]: 1.8 g | ALP [1]: 2097.8 IU/L | ALT [1]: 45 IU/L | AST [1]: 75.8 IU/L | CRE [1]: 0.2 mg/dL | DBIL [1]: 0.006 mg/dL | GLC [1]: 176.4 mg/dL | IP [1]: 7.5 mg/dL | K [1]: 4 meq/L | LDH [1]: 112.6 IU/L | Na [1]: 142 meq/L | PL [1]: 155.8 mg/dL | RALB [1]: 2.6 g/dL | TBIL [1]: 0.04 mg/dL | TC [1]: 80.4 mg/dL | TG [1]: 101 mg/dL | TP [1]: 5.6 g/dL | gamma-GTP [1]: 1 IU/L | TERMINAL_BW [2]: 198.6 g | APTT [2]: 17.8 s | Bas [2]: 0.2% | Eos [2]: 0.4% | Fbg [2]: 275.2 mg/dL | Hb [2]: 12.9 g/dL | Ht [2]: 40% | Lym [2]: 73% | MCH [2]: 21.7 pg | MCHC [2]: 32.1% | MCV [2]: 67.4 fL | Mono [2]: 3.2% | Neu [2]: 22.4% | Plat [2]: 112.8 x10_4/uL | RBC [2]: 593.6 x10_4/ul | Ret [2]: 10% | WBC [2]: 63.7 x10_2/uL | KIDNEY_L [2]: 0.9 g | KIDNEY_R [2]: 0.9 g | KIDNEY_TOTAL [2]: 1.8 g | LIVER [2]: 9 g | ALP [2]: 1422.6 IU/L | ALT [2]: 48 IU/L | AST [2]: 76.6 IU/L | CRE [2]: 0.1 mg/dL | DBIL [2]: 0.002 mg/dL | GLC [2]: 187.4 mg/dL | IP [2]: 10 mg/dL | K [2]: 3.9 meq/L | LDH [2]: 71.2 IU/L | Na [2]: 145.6 meq/L | PL [2]: 147.6 mg/dL | RALB [2]: 2.4 g/dL | TBIL [2]: 0.044 mg/dL | TC [2]: 78.6 mg/dL | TG [2]: 64.6 mg/dL | TP [2]: 5.3 g/dL | gamma-GTP [2]: 1.2 IU/L | TERMINAL_BW [3]: 194.4 g | APTT [3]: 17.3 s | Bas [3]: 0.2% | Eos [3]: 0.8% | Fbg [3]: 290 mg/dL | Hb [3]: 12.9 g/dL | Ht [3]: 40% | Lym [3]: 74.2% | MCH [3]: 21.3 pg | MCHC [3]: 32.4% | MCV [3]: 66 fL | Mono [3]: 3% | Neu [3]: 21% | Plat [3]: 126.3 x10_4/uL | RBC [3]: 605.6 x10_4/ul | Ret [3]: 9.5% | WBC [3]: 84.5 x10_2/uL | KIDNEY_L [3]: 0.9 g | KIDNEY_R [3]: 0.9 g | KIDNEY_TOTAL [3]: 1.8 g | LIVER [3]: 7.8 g | ALP [3]: 1630.2 IU/L | ALT [3]: 42.2 IU/L | AST [3]: 83.2 IU/L | CRE [3]: 0.1 mg/dL | DBIL [3]: 0 mg/dL | GLC [3]: 185 mg/dL | IP [3]: 11.1 mg/dL | K [3]: 3.7 meq/L | LDH [3]: 85.2 IU/L | Na [3]: 146.2 meq/L | PL [3]: 141.6 mg/dL | RALB [3]: 2.5 g/dL | TBIL [3]: 0.054 mg/dL | TC [3]: 82.6 mg/dL | TG [3]: 11.2 mg/dL | TP [3]: 5.4 g/dL | gamma-GTP [3]: 1.4 IU/L | TERMINAL_BW [4]: 192.2 g | APTT [4]: 17.8 s | Bas [4]: 0% | Eos [4]: 1% | Fbg [4]: 275 mg/dL | Hb [4]: 13.2 g/dL | Ht [4]: 39.9% | Lym [4]: 77.6% | MCH [4]: 21.9 pg | MCHC [4]: 33% | MCV [4]: 66.4 fL | Mono [4]: 2.6% | Neu [4]: 18.4% | Plat [4]: 130.9 x10_4/uL | RBC [4]: 603.6 x10_4/ul | Ret [4]: 9.4% | WBC [4]: 76.7 x10_2/uL | KIDNEY_L [4]: 0.9 g | KIDNEY_R [4]: 0.9 g | KIDNEY_TOTAL [4]: 1.7 g | LIVER [4]: 7.6 g | ALP [4]: 1517.4 IU/L | ALT [4]: 38.2 IU/L | AST [4]: 64.8 IU/L | CRE [4]: 0.1 mg/dL | DBIL [4]: 0.002 mg/dL | GLC [4]: 184 mg/dL | IP [4]: 10.4 mg/dL | K [4]: 3.9 meq/L | LDH [4]: 74.2 IU/L | Na [4]: 145.2 meq/L | PL [4]: 142 mg/dL | RALB [4]: 2.5 g/dL | TBIL [4]: 0.06 mg/dL | TC [4]: 79.2 mg/dL | TG [4]: 12.2 mg/dL | TP [4]: 5.5 g/dL | gamma-GTP [4]: 1 IU/L | TERMINAL_BW [5]: 185.6 g | APTT [5]: 16.9 s | Bas [5]: 0% | Eos [5]: 0.8% | Fbg [5]: 277.2 mg/dL | Hb [5]: 14.8 g/dL | Ht [5]: 43.9% | Lym [5]: 81.2% | MCH [5]: 22 pg | MCHC [5]: 33.8% | MCV [5]: 65.2 fL | Mono [5]: 2.2% | Neu [5]: 15.6% | Plat [5]: 130.7 x10_4/uL | RBC [5]: 672.8 x10_4/ul | Ret [5]: 7.4% | WBC [5]: 65.5 x10_2/uL | KIDNEY_L [5]: 0.9 g | KIDNEY_R [5]: 0.9 g | KIDNEY_TOTAL [5]: 1.8 g | LIVER [5]: 7.3 g | ALP [5]: 1482.6 IU/L | ALT [5]: 31.8 IU/L | AST [5]: 59 IU/L | CRE [5]: 0.2 mg/dL | DBIL [5]: 0 mg/dL | GLC [5]: 173.2 mg/dL | IP [5]: 9.1 mg/dL | K [5]: 4.1 meq/L | LDH [5]: 87 IU/L | Na [5]: 144.6 meq/L | PL [5]: 131.8 mg/dL | RALB [5]: 2.6 g/dL | TBIL [5]: 0.046 mg/dL | TC [5]: 74.4 mg/dL | TG [5]: 30.6 mg/dL | TP [5]: 5.7 g/dL | gamma-GTP [5]: 1 IU/L
